Tested on: rats
Experiment: Plasma metabolite profiling (GC-MS/LC-MS) of rats treated with aniline; biomarkers for aniline-inducible hemolytic anemia
Format: in vivo, rat
Protocol: A group of each 5 male and female rats was dosed once daily with aniline at 10 and 100 mg/kg body weight per gavage over 28 days. Additional groups of each 5 male and female animals served as controls. Before starting the treatment period, animals, which were 62-64 days old when supplied, were acclimatized to the housing and environmental conditions for 7 days. All animals of the animal population were kept under the same constant temperature (20-24±3° C.) and the same constant humidity (30-70%). Each animal of the animal population was kept in a separate cage. The animals of the animal population are fed ad libitum. The food to be used was be essentially free of chemical or microbial contaminants. Drinking water was also offered ad libitum. Accordingly, the water was be free of chemical and microbial contaminants as laid down in the European Drinking Water Directive 98/83/EG. The illumination period was 12 hours light followed by 12 hours darkness (12 hours light, from 6:00 to 18:00, and 12 hours darkness, from 18:00 to 6:00).
In the morning of day 7, 14, and 28, blood was taken from the retroorbital venous plexus from fasted anaesthetized animals. From each animal, 1 ml of blood was collected with EDTA as anticoagulant. The samples were be centrifuged for generation of plasma. All plasma samples were covered with a N2 atmosphere and then stored at −80° C. until analysis.
For mass spectrometry-based metabolite profiling analyses plasma samples were extracted and a polar and a non-polar fraction was obtained. For GC-MS analysis, the non-polar fraction was hydrolyzed under acidic conditions to yield the fatty acid methyl esters. Both fractions were further derivatised with a silylating agent before analysis. In LC-MS analysis, both fractions were reconstituted in appropriate solvent mixtures. HPLC was performed by gradient elution on reversed phase separation columns. For mass spectrometric detection metanomics proprietary technology was applied which allows target and high sensitivity MRM (Multiple Reaction Monitoring) profiling in parallel to a full screen analysis. […] Moreover, several hundred further analytes giving a fingerprint of the sample are included in the methods.
Following comprehensive analytical validation steps, the data for each analyte were normalized against data from pool samples. These samples were run in parallel through the whole process to account for process variability. The significance of treatment group values specific for sex, dose group and metabolite was determined by comparing means of the treated groups to the means of the respective untreated control groups using Student's t-test. Normalized treatment group values and their significance were fed into a database for further statistics and data mining processes.
The changes of the group of plasma metabolites being indicative for hemolytic anemia after treatment of rats with aniline are shown in the following table: […]

[1] = female rats, day 7, 100 mg/kg body weight/day by gavage
[2] = female rats, day 14, 100 mg/kg body weight/day by gavage
[3] = female rats, day 28, 100 mg/kg body weight/day by gavage
[4] = male and female rats, 100 mg/kg body weight/day by gavage for 28 days
[5] = male rats, day 7, 100 mg/kg body weight/day by gavage
[6] = male rats, day 14, 100 mg/kg body weight/day by gavage
[7] = male rats, day 28, 100 mg/kg body weight/day by gavage

Nc1ccccc1 [aniline]
11-desoxycortisol, fold change against controls [1]: 0.39 fold | 18-hydroxycorticosterone, fold change against controls [1]: 0.43 fold | cytosine, fold change against controls [1]: 1.81 fold | ribal (1,4-anhydro-2-deoxy-D-erythro-pent-1-enitol) (=MetID 407), fold change against controls [1]: 1.79 fold | 11-desoxycortisol, fold change against controls [2]: 0.71 fold | 18-hydroxycorticosterone, fold change against controls [2]: 0.71 fold | cytosine, fold change against controls [2]: 1.18 fold | ribal (1,4-anhydro-2-deoxy-D-erythro-pent-1-enitol) (=MetID 407), fold change against controls [2]: 1.66 fold | 11-desoxycortisol, fold change against controls [3]: 0.41 fold | 18-hydroxycorticosterone, fold change against controls [3]: 0.47 fold | cytosine, fold change against controls [3]: 1.38 fold | ribal (1,4-anhydro-2-deoxy-D-erythro-pent-1-enitol) (=MetID 407), fold change against controls [3]: 1.59 fold | Regulation of 11-desoxycortisol [4]: down | Regulation of 18-hydroxycorticosterone [4]: down | Regulation of cytosine [4]: up | Regulation of ribal (1,4-anhydro-2-deoxy-D-erythro-pent-1-enitol) (=MetID 407) [4]: up | 11-desoxycortisol, fold change against controls [5]: 0.47 fold | 18-hydroxycorticosterone, fold change against controls [5]: 0.34 fold | cytosine, fold change against controls [5]: 1.50 fold | ribal (1,4-anhydro-2-deoxy-D-erythro-pent-1-enitol) (=MetID 407), fold change against controls [5]: 1.68 fold | 11-desoxycortisol, fold change against controls [6]: 0.48 fold | 18-hydroxycorticosterone, fold change against controls [6]: 0.33 fold | cytosine, fold change against controls [6]: 1.17 fold | ribal (1,4-anhydro-2-deoxy-D-erythro-pent-1-enitol) (=MetID 407), fold change against controls [6]: 1.42 fold | 11-desoxycortisol, fold change against controls [7]: 0.27 fold | 18-hydroxycorticosterone, fold change against controls [7]: 0.18 fold | cytosine, fold change against controls [7]: 1.71 fold | ribal (1,4-anhydro-2-deoxy-D-erythro-pent-1-enitol) (=MetID 407), fold change against controls [7]: 1.82 fold
